Experimental data: the NIST ThermoML archive (doi:10.1007/s10765-010-0862-1)

Columns and labels:
[1] = mn = molality of the nth substance listed, in mol/kg; conditions: 101.3 kPa, Liquid
[2] = 101.3 kPa, Liquid

NCCCC(=O)O [4-aminobutanoic acid] + O
[1]
Conditions | mass density, m1 = 0.02 [kg/m3] | mass density, m1 = 0.04 [kg/m3] | mass density, m1 = 0.06 [kg/m3] | mass density, m1 = 0.08 [kg/m3] | mass density, m1 = 0.1 [kg/m3] | speed of sound, m1 = 0.02 [m/s] | speed of sound, m1 = 0.04 [m/s] | speed of sound, m1 = 0.06 [m/s] | speed of sound, m1 = 0.08 [m/s] | speed of sound, m1 = 0.1 [m/s]
308.15 K | 994.6 | 995.2 | 995.8 | 996.4 | 997 | 1521.8 | 1523 | 1524.3 | 1525.6 | 1527
313.15 K | 992.8 | 993.4 | 994 | 994.6 | 995.2 | 1529.4 | 1530.7 | 1532 | 1533.3 | 1534.6
318.15 K | 990.8 | 991.4 | 992 | 992.6 | 993.2 | 1536.5 | 1537.7 | 1538.9 | 1540.1 | 1541.3

CN(C)C(=N)NC(=N)N.Cl [N,N-dimethylimidodicarbonimidic diamide hydrochloride] + O
[1]
Conditions | mass density, 308.15 K [kg/m3] | mass density, 313.15 K [kg/m3] | mass density, 318.15 K [kg/m3] | speed of sound, 308.15 K [m/s] | speed of sound, 313.15 K [m/s] | speed of sound, 318.15 K [m/s]
m1 = 0.05 | 997.5 | 996 | 994.3 | 1527.4 | 1534.4 | 1539.2
m1 = 0.1 | 999.1 | 997.2 | 995.5 | 1529 | 1537.8 | 1541
m1 = 0.15 | 1000.2 | 998.8 | 997.2 | 1530 | 1541.2 | 1543.8

O [water]
[2]
Conditions | speed of sound [m/s]
313.15 K | 1528
318.15 K | 1535.2
